Tested on: plasma protein
Assay: Plasma protein binding (rapid equilibrium dialysis)
Assay type: in vitro ADME, mice

c1ccc2nc(N3CCOCC3)cnc2c1 [Qx-294, 2-(morpholine)-quinoxaline]
Plasma protein binding: highly protein-bound
